The text below walks through data of paper PMC9000887, “Novel 1,2,3-Triazole-Coumarin Hybrid Glycosides and Their Tetrazolyl Analogues: Design, Anticancer Evaluation and Molecular Docking Targeting EGFR, VEGFR-2 and CDK-2” (Molecules, 2022).

The subject of data set [1] is human pancreatic (Paca-2) cancer cell line. Nature of the data set: MTT cytotoxicity assay, Paca-2. Particulars: Homo sapiens; for inhibition at 100 µM: PaCa-2, read-out: % Inhibition Paca-2; for IC50: PaCa-2, read-out: IC50 (Mean ± SEM) Paca-2.
Method: (§1) After 48 h incubation, the medium was aspirated and then 40 μL MTT salt (2.5 mg/mL) was added for a further 4 h. […] Doxorubicin was used as the positive control and 0.5% DMSO was used as the negative control.
The test system of data set [2] is human melanoma (A-375) cancer cell line. The data set is described as follows: MTT cytotoxicity assay, A-375. To be noted: Homo sapiens; for inhibition at 100 µM: A-375, read-out: % Inhibition A-375; for IC50: A-375, read-out: IC50 (Mean ± SEM) A-375.
Method: as §1
For data set [3], the system named is human prostate (PC-3) cancer cell line. Nature of the data set: MTT cytotoxicity assay, PC-3. To be noted: Homo sapiens; for inhibition at 100 µM: read-out: % Inhibition PC-3; for IC50: read-out: IC50 (Mean ± SEM) PC-3.
Method: as §1
The subject of data set [4] is human melanoma (Mel-501) cancer cell line. The data set is described as follows: MTT cytotoxicity assay, Mel-501. To be noted: Homo sapiens; for inhibition at 100 µM: read-out: % Inhibition Mel-501; for IC50: read-out: IC50 (Mean ± SEM) Mel-501.
Method: as §1
In data set [5] the test system is human colon (Caco-2) cancer cell line. The data set is described as follows: MTT cytotoxicity assay, Caco-2. Particulars: for % Inhibition Caco-2: Caco-2, at 100 µM, MTT, (-) No activity detected; for IC50: read-out: IC50 (Mean ± SEM) Caco-2, Caco-2, MTT, three independent determinations.
Method: as §1

SMILES strings stand for the structures.

Take `O=c1cc(-c2ccccc2)c2ccc(O)cc2o1` [Compound 1, 7-hydroxy-4-phenyl-2H-chromen-2-one]: the inhibition at 100 µM in data set [1] was 79%; in data set [2] it was 95%; in data set [3], 55.7%; in data set [4], 96.2%. Further, the half-inhibitory concentration (IC50) was found to be 62.3 ± 1.3 µM in data set [1], 12.9 ± 0.6 µM in data set [2] and 28.6 ± 0.4 µM in data set [4]. In data set [5], the “% Inhibition Caco-2” value turned out to be 40.5%.

The compound `N#CCOc1ccc2c(-c3ccccc3)cc(=O)oc2c1` [Compound 2, 2-((2-Oxo-4-phenyl-2H-chromen-7-yl)oxy)acetonitrile] displayed a melting point of 183 to 184 °C. The inhibition at 100 µM in data set [1] was 44.1%. In addition, the inhibition at 100 µM in data set [2] was 6.5%. Also, in data set [3], the inhibition at 100 µM came out at 10.5%. In data set [4], the inhibition at 100 µM turned out to be 35.6%.

The compound `O=c1cc(-c2ccccc2)c2ccc(OCc3nn[nH]n3)cc2o1` [Compound 3, 7-((2H-Tetrazol-5-yl)methoxy)-4-phenyl-2H-chromen-2-one] gave a melting point of 219 to 221 °C. Besides, the inhibition at 100 µM in data set [1] is 55.6%. Further, in data set [2], the inhibition at 100 µM stood at 55.3%. For the same compound, the inhibition at 100 µM in data set [3] came out at 12.2%. Moreover, the inhibition at 100 µM in data set [4] is 48.4%.

In the case of `CC(=O)OC[C@H]1O[C@@H](n2nnc(COc3ccc4c(-c5ccccc5)cc(=O)oc4c3)n2)[C@H](OC(C)=O)[C@@H](OC(C)=O)[C@H]1OC(C)=O` [Compound 5, 4-Phenyl-7-((1-(2,3,4,6-tetra-O-actyl-β-D-galactopyranosyl)-2H-tetrazol-5-yl)methoxy)-2H-chromen-2-one], the melting point lay in the range of 122 to 124 °C. Moreover, the inhibition at 100 µM in data set [1] worked out at 56.9%. Besides, the inhibition at 100 µM in data set [2] is 23.1%. In data set [3], the inhibition at 100 µM was 15%. In data set [4], the inhibition at 100 µM turned out to be 68.4% and the IC50 was 72.1 ± 1.2 µM.

For `O=c1cc(-c2ccccc2)c2ccc(OCc3nnn([C@@H]4O[C@H](CO)[C@H](O)[C@H](O)[C@H]4O)n3)cc2o1` [Compound 7], the melting point lay in the range of 204 to 205 °C. Also, the inhibition at 100 µM in data set [1] was determined as 21.3%. Besides, the inhibition at 100 µM in data set [2] worked out at 13.8%. The inhibition at 100 µM in data set [3] is 0%. For the same compound, the inhibition at 100 µM in data set [4] amounted to 22.3%.

In turn, `O=c1cc(-c2ccccc2)c2ccc(OCc3nnn([C@@H]4OC[C@@H](O)[C@H](O)[C@H]4O)n3)cc2o1` [Compound 8] came in with a melting point of 195 to 196 °C. For the same compound, in data set [1], the inhibition at 100 µM turned out to be 96.5% and the IC50 was 23.8 ± 0.9 µM. Besides, in data set [2], the inhibition at 100 µM is 95% and the IC50 was 13.9 ± 0.2 µM. Further, in data set [3], the inhibition at 100 µM turned out to be 98.1% and the half-inhibitory concentration (IC50) stood at 48.2 ± 0.7 µM. In addition, in data set [4], the inhibition at 100 µM is 98.1% and the IC50 came to 19.4 ± 0.4 µM. In data set [5], the “% Inhibition Caco-2” value is recorded as 97% and the IC50 worked out at 52.5 ± 1.3 µM.

Take `O=c1cc(-c2ccccc2)c2ccc(OCc3nnn(CCOCCO)n3)cc2o1` [Compound 9, 7-((2-(2-(2-Hydroxyethoxy)ethyl)-2H-tetrazol-5-yl)methoxy)-4-phenyl-2H-chromen-2-one]: the inhibition at 100 µM in data set [1] is 94.7%; in data set [2], 84.1%; in data set [3], 95.9%; in data set [4] it was 97.7%. Besides, the IC50 in data set [1] was determined as 28.3 ± 0.7 µM; in data set [2] it was 15 ± 0.04 µM; in data set [3], 47.4 ± 1.4 µM; in data set [4], 30.2 ± 0.5 µM; in data set [5], 38.1 ± 0.4 µM. Moreover, the “% Inhibition Caco-2” value in data set [5] is 99.5%.

On to `C#CCOc1ccc2c(-c3ccccc3)cc(=O)oc2c1` [Compound 11, 4-Phenyl-7-(prop-2-yn-1-yloxy)-2H-chromen-2-one], for which the melting point lay within 116 to 117 °C. Besides, the inhibition at 100 µM in data set [1] was determined as 58.1%. The inhibition at 100 µM in data set [2] amounted to 9.1%. Also, the inhibition at 100 µM in data set [3] came out at 16.7%. Also, the inhibition at 100 µM in data set [4] was found to be 44%. The “% Inhibition Caco-2” value in data set [5] was found to be 0%.

Compound `CC(=O)OC[C@H]1O[C@@H](n2cc(COc3ccc4c(-c5ccccc5)cc(=O)oc4c3)nn2)[C@H](OC(C)=O)[C@@H](OC(C)=O)[C@H]1OC(C)=O` [Compound 14, 4-Phenyl-7-((1-(2,3,4,6-tetra-O-acetyl-β-D-galactopyranosyl)-1H-1,2,3-triazol-4-yl)methoxy)-2H-chromen-2-one] displayed a melting point of 93 to 94 °C. In data set [1], the inhibition at 100 µM is 94.9% and the IC50 is 33.4 ± 0.6 µM. Moreover, in data set [2], the inhibition at 100 µM amounted to 96.8% and the half-maximal inhibitory concentration (IC50) is 12.4 ± 0.3 µM. For the same compound, in data set [3], the inhibition at 100 µM amounted to 80.2% and the half-maximal inhibitory concentration (IC50) was found to be 51.3 ± 1.6 µM. For the same compound, in data set [4], the inhibition at 100 µM is 77.1% and the IC50 amounted to 65.1 ± 1.2 µM. Further, in data set [5], the “% Inhibition Caco-2” value was determined as 89.8% and the IC50 was determined as 70.2 ± 1.4 µM.

`O=c1cc(-c2ccccc2)c2ccc(OCc3cn([C@@H]4O[C@H](CO)[C@@H](O)[C@H](O)[C@H]4O)nn3)cc2o1` [Compound 16, 4-Phenyl-7-((1-(β-D-glucopyranosyl)-1H-1,2,3-triazol-4-yl)methoxy)-2H-chromen-2-one] registered a melting point of 180 to 182 °C. Besides, in data set [1], the inhibition at 100 µM came out at 96.9% and the 50% inhibitory concentration (IC50) is 23.8 ± 1.1 µM. In addition, in data set [2], the inhibition at 100 µM came to 97.5% and the IC50 was 16.3 ± 0.6 µM. In addition, in data set [3], the inhibition at 100 µM was determined as 95.8% and the IC50 was determined as 36.4 ± 1.1 µM. In addition, in data set [4], the inhibition at 100 µM was determined as 99.1% and the 50% inhibitory concentration (IC50) was determined as 26.5 ± 0.7 µM. In data set [5], the “% Inhibition Caco-2” value worked out at 99% and the concentration for half-maximal inhibition (IC50) came to 48.1 ± 0.4 µM.

In turn, `O=c1cc(-c2ccccc2)c2ccc(OCc3cn([C@@H]4O[C@H](CO)[C@H](O)[C@H](O)[C@H]4O)nn3)cc2o1` [Compound 17, 4-Phenyl-7-((1-(β-D-galactopyranosyl)-1H-1,2,3-triazol-4-yl)methoxy)-2H-chromen-2-one] yielded a melting point of 185 to 186 °C. Further, in data set [1], the inhibition at 100 µM came out at 96.3% and the IC50 turned out to be 33.3 ± 0.5 µM. Also, in data set [2], the inhibition at 100 µM worked out at 98.5% and the half-inhibitory concentration (IC50) was found to be 39.6 ± 0.5 µM. Further, in data set [3], the inhibition at 100 µM was 97.3% and the concentration for half-maximal inhibition (IC50) came out at 41 ± 2.1 µM. For the same compound, in data set [4], the inhibition at 100 µM is 98.6% and the 50% inhibitory concentration (IC50) was 35.8 ± 0.7 µM. Further, in data set [5], the “% Inhibition Caco-2” value came out at 95.6% and the IC50 turned out to be 48.1 ± 0.8 µM.

For the compound `O=c1cc(-c2ccccc2)c2ccc(OCc3cn([C@@H]4OC[C@@H](O)[C@H](O)[C@H]4O)nn3)cc2o1` [Compound 18, 4-Phenyl-7-((1-(β-D-Xylopyranosyl)-1H-1,2,3-triazol-4-yl)methoxy)-2H-chromen-2-one], the melting point lay in the range of 177 to 178 °C. Also, in data set [1], the inhibition at 100 µM came to 96.9% and the IC50 amounted to 36.4 ± 1.2 µM. Moreover, in data set [2], the inhibition at 100 µM came out at 97.9% and the IC50 turned out to be 8.5 ± 0.3 µM. Besides, in data set [3], the inhibition at 100 µM worked out at 91.4% and the IC50 was 37.6 ± 0.4 µM. Further, in data set [4], the inhibition at 100 µM was 98.5% and the IC50 is 10 ± 0.1 µM. In data set [5], the “% Inhibition Caco-2” value is given as 99.4% and the IC50 came to 61.9 ± 1.3 µM.

Turning to `COc1cccc2c1C(=O)c1c(O)c3c(c(O)c1C2=O)C[C@@](O)(C(=O)CO)C[C@@H]3O[C@H]1C[C@H](N)[C@H](O)[C@H](C)O1` [Doxorubicin, reference compound], the IC50 in data set [1] turned out to be 19.4 ± 0.5 µM; in data set [2] it was 4.5 ± 0.07 µM; in data set [3], 6.8 ± 0.2 µM; in data set [4], 3.5 ± 0.3 µM; in data set [5], 3.7 ± 0.2 µM.
